“Also recorded” adds a separate entry of the source.
How the values were obtained:
[1] = test system: ATGL; test: Western blot of ATGL level in HepG2 cells; assay type: cell-based; design: key to Increase in ATGL level: + = slight or in insignificant; ++ = Moderate; +++ and ++++ = active; +++ and ++++ = active; +++++ = very active; conditions: western blot; for Increase in ATGL level: HepG2 cells, score; for ATGL level in HepG2 cells: 24 hours, 10 μM screening or 50 nM-5 μM dose dependent
Description: (§1) To select the compounds capable of inhibiting the ubiquitination of ATGL by COP1 by targeting the VP motif, confocal microscopy was performed with the provided molecules. If the compound was effective in inhibiting the interaction, there would be a reduction in the number of fat droplets in the cells after treatment. […] With this rationale in mind, HepG2 cells were induced to accumulate lipid droplets after treatment with 250 µM of oleate and 10 μM of the specific compounds were added. The potential of the compounds to bring about a reduction in the number of fat droplets was then checked by comparison with oleate induced cells by counting number of droplets of approximately 20 cells from each treatment and calculating the average number of lipid droplets of each cell. The selected compounds were then subjected to dose dependent treatments and the ones which could maintain its potency to reduce fat droplets at lower doses were then selected for western blot analysis. The compound which could reduce the number of fat droplets in the cells are expected to raise the levels of ATGL since they are likely to deter COP1 from ubiquitinating ATGL. This increase will be visible only in the protein level and gene expression is likely to remain unchanged since ubiquitination is a […] modification. Thus, western blot was performed to check ATGL levels in the cells with the selected molecules.
HepG2 cells were treated with the compounds 9, 10, 11, 17, 18, 23, 24, 115, 123, 127, 139,107, 171, 179, 73, 187, 211, 215, 219, 223, 232, 238, 241, 244, 258, 299, 308, and 333a, (10 μM for initial screening and 50 nM, 100 nM, 200 nM, 500 nM, 1 μM and 5 μM for dose dependent assays) for 24 hours. After removing media from the cells, the wells were washed with 1×PBS twice to remove any remnant media. Cells were then lysed in lysis buffer containing 50 mM Tris-HCl (pH 7.4), 100 mM NaCl, 1 mM EDTA, 1 mM EGTA, 1% Triton X-100 and protease inhibitor cocktail (Millipore, Billierica, MA, USA). Following centrifugation at 20,000 g for 20 minutes, the protein solution was extracted from the cells. Protein was estimated using Bradford assay. Bradford's reagent (BioRad) was diluted in 1:4 ratio in double distilled water. 2 μl of protein sample was added to 100 μl of the reagent and absorbance was measured at 595 nm. […] of protein was diluted in lysis buffer. 1× loading buffer diluted from 5× stock containing 250 mM Tris-HCl (pH 6.8), 10% SDS, 50% glycerol, 0.1% bromophenol Blue and 10% β-mercaptoethanol was added. The protein samples were then heated at 95° C. for 10 minutes, cooled and centrifuged at 12,000 g for 2 minutes prior to loading.
For western blotting, the proteins were resolved in 10% SDS PAGE (discontinuous buffer system). 1× running buffer containing SDS, Tris Base and Glycine was used to run the gel at 80V for approximately 2 hours. Transfer was done using PVDF membrane (Millipore) having pore size of 0.45 μm. 1× transfer buffer containing Tris-Base, Glycine and 20% methanol was used for wet transfer. Transfer was done at 90V for 3 hours. Following transfer, the PVDF membrane containing the proteins were washed in 1×PBST comprising of 1×PBS and 1% Tween 20 (Sigma Aldrich). The membrane was then incubated for 1 hour at room temperature in 5% skim milk powder to block the non-specific sites. Following multiple washes with 1×PBST to wash away any remaining blocking buffer, the required primary antibody (COP1 [Bethyl Laboraties], ATGL [Cell Signalling Technology] or Actin[Cell Signalling Technology]) prepared with 1×PBST, 1% Bovine Serum Albumin and 0.04% Sodium Azide was added to the membrane and incubated overnight at 4° C. The next day, the membrane was again washed multiple times with 1×PBST to remove any unbound primary antibody. The membrane was then incubated with goat anti-rabbit secondary antibody (Genei) for 1 hour at room temperature and washed again for multiple times with 1×PBST. […]

[2] = test system: HepG2 cells; test: Confocal microscopy: lipid droplets in oleate induced HepG2 cells; assay type: cell-based; design: key to Reduction in Lipid Droplets: + = slight or in insignificant; ++ = Moderate; +++ and ++++ = active; +++ and ++++ = active; +++++ = very active; conditions: for Reduction in Lipid Droplets: oleate induced HepG2 cells, score; for Number of lipid droplets: HepG2 cells, 250 μM oleate induction
Description: as §1
HepG2 cells were plated in confocal dishes (SPL, Genetix Biotech Asia Pvt. Ltd.). The cells were allowed to adhere and divide for 16 hours. 10 μM for initial screening and 10 nM, 20 nM, 50 nM, 100 nM, 200 nM, 500 nM, 1 μM and 5 μM for dose dependent assays of the compounds 9 and 107 were dissolved in DMSO and added to the cells. 250 μM of oleate was used for induction. BSA (Sigma Aldrich) was used as a negative control. Post 24 hours of treatment, media was decanted from the cells and washed with 1×PBS solution to remove any remnant. 200 μl of staining solution containing 200 ng/ml BODIPY (Invitrogen) and 25 µg/ml HOECKST342 (Invitrogen) were added to the cells and incubated at 37° C. for 30 minutes under dark conditions. Cells were washed 3 times with 1×PBS to remove excess stain. FLUOVIEW FV10i (Olympus) was used to visualise the cells.

Structure (SMILES) | Increase in ATGL level [1] | ATGL level in HepG2 cells [1] | Reduction in Lipid Droplets [2] | Number of lipid droplets [2]
COCCn1cnc2ccc(NC(=O)Nc3cccc(C(=O)N4CCCC4)c3)cc2c1=O [Compound 18, 1-(3-(2-methoxyethyl)-4-oxo-3,4-dihydroquinazolin-6-yl)-3-(3-(pyrrolidine-1-carbonyl)phenyl)urea] | ++++ | increased ATGL level; also recorded: ability to increase ATGL level | + | 
COCCn1cnc2ccc(NC(=O)Nc3cccc(C(=O)N4CCOCC4)c3)cc2c1=O [Compound 19, 1-(3-(2-methoxyethyl)-4-oxo-3,4-dihydroquinazolin-6-yl)-3-(3-(morpholine-4-carbonyl)phenyl)urea] | + | ability to increase ATGL level | ++ | 
COCCn1cnc2ccc(NC(=O)Nc3ccc(C(=O)N4CCCC4)cc3)cc2c1=O [Compound 20, 1-(3-(2-methoxyethyl)-4-oxo-3,4-dihydroquinazolin-6-yl)-3-(4-(pyrrolidine-1-carbonyl)phenyl)urea] | ++ | ability to increase ATGL level | ++ | 
COCCn1cnc2ccc(NC(=O)Nc3cccc(-c4nc5ccccc5o4)c3)cc2c1=O [Compound 21, 1-(3-(benzo[d]oxazol-2-yl)phenyl)-3-(3-(2-methoxyethyl)-4-oxo-3,4-dihydroquinazolin-6-yl)urea] | + |  | + | 
COCCn1cnc2ccc(NC(=O)Nc3cccc(NC(C)=O)c3)cc2c1=O [Compound 22, N-(3-(3-(3-(2-methoxyethyl)-4-oxo-3,4-dihydroquinazolin-6-yl)ureido)phenyl)acetamide] | + |  | + | 
COCCn1cnc2ccc(NC(=O)Nc3cccc(N(C)C(C)=O)c3)cc2c1=O [Compound 23, N-(3-(3-(3-(2-methoxyethyl)-4-oxo-3,4-dihydroquinazolin-6-yl)ureido)phenyl)-N-methylacetamide] | ++++ | increased ATGL level | ++ | 
COCCn1cnc2ccc(NC(=O)Nc3cccc(N(Cc4ccccc4)C(C)=O)c3)cc2c1=O [Compound 24, N-benzyl-N-(3-(3-(3-(2-methoxyethyl)-4-oxo-3,4-dihydroquinazolin-6-yl)ureido)phenyl)acetamide] | ++++ | increased ATGL level | + | 
COCCn1cnc2ccc(NC(=O)Nc3ccc(F)cc3)cc2c1=O [Compound 35, 1-(4-fluorophenyl)-3-(3-(2-methoxyethyl)-4-oxo-3,4-dihydroquinazolin-6-yl)urea] | + |  | + | 
COCCn1cnc2ccc(NC(=O)Nc3ccc(F)c(Cl)c3)cc2c1=O [Compound 36, 1-(3-chloro-4-fluorophenyl)-3-(3-(2-methoxyethyl)-4-oxo-3,4-dihydroquinazolin-6-yl)urea] | +++ |  | + | 
COCCn1cnc2ccc(NC(=O)Nc3ccc(OC(F)(F)F)cc3)cc2c1=O [Compound 37, 1-(3-(2-methoxyethyl)-4-oxo-3,4-dihydroquinazolin-6-yl)-3-(4-(trifluoromethoxy)phenyl)urea] | + |  | + | 
COCCn1cnc2ccc(NC(=O)Nc3ccc(OC)cc3)cc2c1=O [Compound 40, 1-(3-(2-methoxyethyl)-4-oxo-3,4-dihydroquinazolin-6-yl)-3-(4-methoxyphenyl)urea] | ++++ |  | ++ | 
COCCn1cnc2ccc(NC(=O)Nc3ccccc3OC)cc2c1=O [Compound 41, 1-(3-(2-methoxyethyl)-4-oxo-3,4-dihydroquinazolin-6-yl)-3-(2-methoxyphenyl)urea] | ++++ |  | ++ | 
CCOC(=O)c1cccc(NC(=O)Nc2ccc3ncn(CCOC)c(=O)c3c2)c1 [Compound 42, ethyl 3-(3-(3-(2-methoxyethyl)-4-oxo-3,4-dihydroquinazolin-6-yl)ureido)benzoate] | + |  | + | 
CCOC(=O)Cn1cnc2ccc(NC(=O)Nc3ccc(F)c(Cl)c3)cc2c1=O [Compound 83, ethyl 2-(6-(3-(3-chloro-4-fluorophenyl)ureido)-4-oxoquinazolin-3 (4H)-yl)acetate] | + |  | + | 
CCOC(=O)Cn1cnc2ccc(NC(=O)Nc3ccc(OC(F)(F)F)cc3)cc2c1=O [Compound 84, ethyl 2-(4-oxo-6-(3-(4-(trifluoromethoxy)phenyl)ureido)quinazolin-3 (4H)-yl)acetate] | ++ |  | +++ | 
CCOC(=O)Cn1cnc2ccc(NC(=O)Nc3cccc(C(C)=O)c3)cc2c1=O [Compound 85, ethyl 2-(6-(3-(3-acetylphenyl)ureido)-4-oxoquinazolin-3 (4H)-yl)acetate] | + |  | + | 
COCCCn1cnc2ccc(NC(=O)Nc3cccc(C(C)=O)c3)cc2c1=O [Compound 89, 1-(3-acetylphenyl)-3-(3-(3-methoxypropyl)-4-oxo-3,4-dihydroquinazolin-6-yl)urea] | + | some sort of increase in ATGL level | +++ | reduction in lipid droplets
CCOCCn1cnc2ccc(NC(=O)Nc3cccc(C(C)=O)c3)cc2c1=O [Compound 93, 1-(3-acetylphenyl)-3-(3-(2-ethoxyethyl)-4-oxo-3,4-dihydroquinazolin-6-yl)urea] | ++++ | some sort of increase in ATGL level | +++ | reduction in lipid droplets

Reference: patent US12528777B2, “Quinazolinones derivatives for treatment of non-alcoholic fatty liver disease, preparation and use thereof” (Council of Scientific and Industrial Research, priority 2020, dated 2026)
